± gives the uncertainty stated by the source.
Assay: xn = mol fraction of the nth substance listed
Conditions: 101 kPa, frequency 0.001 MHz

CCCCCCCCCCCCCCn1cc[n+](C)c1.[Br-] + CC[N+](CC)(CC)CC.[Br-] + O
electrical conductivity [S/m]
Conditions | 308.15 K | 318.15 K
x1 = 4.74e-06, x2 = 0 | – | 0.00409 ± 0.0002
x1 = 4.74e-06, x2 = 1.802e-05 | – | 0.0198 ± 0.001
x1 = 4.74e-06, x2 = 3.604e-05 | – | 0.0318 ± 0.0016
x1 = 4.74e-06, x2 = 9.009e-05 | – | 0.063 ± 0.0034
x1 = 9.35e-06, x2 = 0 | – | 0.00708 ± 0.00038
x1 = 9.35e-06, x2 = 1.802e-05 | – | 0.0223 ± 0.0011
x1 = 9.36e-06, x2 = 3.604e-05 | – | 0.0345 ± 0.0017
x1 = 9.36e-06, x2 = 9.009e-05 | – | 0.0648 ± 0.0035
x1 = 1.386e-05, x2 = 0 | – | 0.0101 ± 0.0005
x1 = 1.386e-05, x2 = 1.802e-05 | – | 0.025 ± 0.0012
x1 = 1.386e-05, x2 = 3.604e-05 | – | 0.0365 ± 0.0018
x1 = 1.387e-05, x2 = 9.009e-05 | – | 0.0665 ± 0.0035
x1 = 1.825e-05, x2 = 0 | – | 0.0127 ± 0.0007
x1 = 1.826e-05, x2 = 1.802e-05 | – | 0.0271 ± 0.0013
x1 = 1.826e-05, x2 = 3.604e-05 | – | 0.0389 ± 0.0019
x1 = 1.827e-05, x2 = 9.009e-05 | – | 0.0681 ± 0.0035
x1 = 2.252e-05, x2 = 0 | – | 0.0154 ± 0.00087
x1 = 2.253e-05, x2 = 1.802e-05 | – | 0.0294 ± 0.0014
x1 = 2.253e-05, x2 = 3.604e-05 | – | 0.0416 ± 0.002
x1 = 2.255e-05, x2 = 9.009e-05 | – | 0.0705 ± 0.0036
x1 = 2.669e-05, x2 = 0 | – | 0.0182 ± 0.001
x1 = 2.669e-05, x2 = 1.802e-05 | – | 0.0318 ± 0.0016
x1 = 2.67e-05, x2 = 3.604e-05 | – | 0.0432 ± 0.0021
x1 = 2.671e-05, x2 = 9.009e-05 | – | 0.0723 ± 0.0037
x1 = 3.076e-05, x2 = 0 | – | 0.0206 ± 0.0012
x1 = 3.077e-05, x2 = 1.802e-05 | – | 0.0341 ± 0.0017
x1 = 3.077e-05, x2 = 3.604e-05 | – | 0.0451 ± 0.0022
x1 = 3.079e-05, x2 = 9.009e-05 | – | 0.0738 ± 0.0037
x1 = 3.474e-05, x2 = 0 | – | 0.0232 ± 0.0013
x1 = 3.475e-05, x2 = 1.802e-05 | – | 0.0362 ± 0.0018
x1 = 3.475e-05, x2 = 3.604e-05 | – | 0.0472 ± 0.0023
x1 = 3.477e-05, x2 = 9.009e-05 | – | 0.0748 ± 0.0037
x1 = 3.862e-05, x2 = 0 | – | 0.0253 ± 0.0014
x1 = 3.862e-05, x2 = 1.802e-05 | – | 0.0384 ± 0.0019
x1 = 3.863e-05, x2 = 3.604e-05 | – | 0.0492 ± 0.0024
x1 = 3.865e-05, x2 = 9.009e-05 | – | 0.0752 ± 0.0037
x1 = 4.24e-05, x2 = 0 | – | 0.028 ± 0.0016
x1 = 4.241e-05, x2 = 1.802e-05 | – | 0.0404 ± 0.002
x1 = 4.242e-05, x2 = 3.604e-05 | – | 0.0511 ± 0.0024
x1 = 4.244e-05, x2 = 9.009e-05 | – | 0.0753 ± 0.0037
x1 = 4.613e-05, x2 = 0 | – | 0.0303 ± 0.0017
x1 = 4.614e-05, x2 = 1.802e-05 | – | 0.042 ± 0.002
x1 = 4.615e-05, x2 = 3.604e-05 | – | 0.0518 ± 0.0024
x1 = 4.617e-05, x2 = 9.009e-05 | – | 0.0756 ± 0.0037
x1 = 4.973e-05, x2 = 0 | – | 0.0322 ± 0.0017
x1 = 4.974e-05, x2 = 1.802e-05 | – | 0.0432 ± 0.002
x1 = 4.975e-05, x2 = 3.604e-05 | – | 0.0525 ± 0.0024
x1 = 4.978e-05, x2 = 9.009e-05 | – | 0.0758 ± 0.0037
x1 = 5.334e-05, x2 = 0 | 0.0273 ± 0.0014 | 0.0335 ± 0.0016
x1 = 5.335e-05, x2 = 1.802e-05 | 0.035 ± 0.0017 | 0.0441 ± 0.0021
x1 = 5.336e-05, x2 = 3.604e-05 | 0.0423 ± 0.0021 | 0.0531 ± 0.0025
x1 = 5.339e-05, x2 = 9.009e-05 | 0.063 ± 0.0032 | 0.0761 ± 0.0037
x1 = 5.676e-05, x2 = 0 | 0.0282 ± 0.0014 | 0.0345 ± 0.0017
x1 = 5.677e-05, x2 = 1.802e-05 | 0.0354 ± 0.0017 | 0.0449 ± 0.0021
x1 = 5.678e-05, x2 = 3.604e-05 | 0.0428 ± 0.0021 | 0.0534 ± 0.0025
x1 = 5.681e-05, x2 = 9.009e-05 | 0.063 ± 0.0032 | 0.0763 ± 0.0037
x1 = 6e-05, x2 = 0 | 0.0288 ± 0.0014 | 0.0356 ± 0.0017
x1 = 6.001e-05, x2 = 1.802e-05 | 0.0359 ± 0.0017 | 0.0455 ± 0.0021
x1 = 6.003e-05, x2 = 3.604e-05 | 0.0432 ± 0.0021 | 0.0541 ± 0.0025
x1 = 6.006e-05, x2 = 9.009e-05 | 0.0633 ± 0.0032 | 0.0768 ± 0.0037
x1 = 6.343e-05, x2 = 0 | 0.0294 ± 0.0015 | 0.0365 ± 0.0017
x1 = 6.344e-05, x2 = 1.802e-05 | 0.0364 ± 0.0017 | 0.0461 ± 0.0022
x1 = 6.345e-05, x2 = 3.604e-05 | 0.0435 ± 0.0021 | 0.0542 ± 0.0025
x1 = 6.349e-05, x2 = 9.009e-05 | 0.0636 ± 0.0032 | 0.0773 ± 0.0037
x1 = 6.667e-05, x2 = 0 | 0.03 ± 0.0015 | 0.0372 ± 0.0017
x1 = 6.668e-05, x2 = 1.802e-05 | 0.0368 ± 0.0018 | 0.0467 ± 0.0022
x1 = 6.67e-05, x2 = 3.604e-05 | 0.0439 ± 0.0021 | 0.0548 ± 0.0026
x1 = 6.673e-05, x2 = 9.009e-05 | 0.0637 ± 0.0032 | 0.0777 ± 0.0037
x1 = 6.973e-05, x2 = 0 | 0.0305 ± 0.0015 | 0.0377 ± 0.0017
x1 = 6.975e-05, x2 = 1.802e-05 | 0.0373 ± 0.0018 | 0.0473 ± 0.0022
x1 = 6.976e-05, x2 = 3.604e-05 | 0.0442 ± 0.0021 | 0.0552 ± 0.0026
x1 = 6.98e-05, x2 = 9.009e-05 | 0.0641 ± 0.0032 | 0.0781 ± 0.0038
x1 = 7.28e-05, x2 = 0 | 0.0311 ± 0.0015 | 0.0383 ± 0.0018
x1 = 7.281e-05, x2 = 1.802e-05 | 0.0375 ± 0.0018 | 0.0478 ± 0.0022
x1 = 7.282e-05, x2 = 3.604e-05 | 0.0445 ± 0.0022 | 0.0555 ± 0.0026
x1 = 7.287e-05, x2 = 9.009e-05 | 0.0646 ± 0.0032 | 0.0785 ± 0.0038
x1 = 7.586e-05, x2 = 0 | 0.0316 ± 0.0016 | 0.0389 ± 0.0018
x1 = 7.587e-05, x2 = 1.802e-05 | 0.0382 ± 0.0019 | 0.0482 ± 0.0022
x1 = 7.589e-05, x2 = 3.604e-05 | 0.0453 ± 0.0022 | 0.0561 ± 0.0027
x1 = 7.593e-05, x2 = 9.009e-05 | 0.065 ± 0.0032 | 0.0786 ± 0.0037
x1 = 7.892e-05, x2 = 0 | 0.0321 ± 0.0016 | 0.0396 ± 0.002
x1 = 7.894e-05, x2 = 1.802e-05 | 0.0389 ± 0.0019 | 0.0485 ± 0.0022
x1 = 7.895e-05, x2 = 3.604e-05 | 0.0455 ± 0.0022 | 0.0568 ± 0.0027
x1 = 7.9e-05, x2 = 9.008e-05 | 0.0654 ± 0.0033 | 0.0789 ± 0.0037
x1 = 8.18e-05, x2 = 0 | 0.0326 ± 0.0016 | 0.0408 ± 0.0021
x1 = 8.182e-05, x2 = 1.802e-05 | 0.0391 ± 0.0019 | 0.0492 ± 0.0023
x1 = 8.184e-05, x2 = 3.604e-05 | 0.0458 ± 0.0022 | 0.0571 ± 0.0026
x1 = 8.188e-05, x2 = 9.008e-05 | 0.0658 ± 0.0033 | 0.0792 ± 0.0038
x1 = 8.451e-05, x2 = 0 | 0.0329 ± 0.0016 | 0.0414 ± 0.002
x1 = 8.452e-05, x2 = 1.802e-05 | 0.0395 ± 0.0019 | 0.0496 ± 0.0023
x1 = 8.454e-05, x2 = 3.604e-05 | 0.0462 ± 0.0022 | 0.0573 ± 0.0027
x1 = 8.459e-05, x2 = 9.008e-05 | 0.066 ± 0.0033 | 0.0796 ± 0.0038
x1 = 8.739e-05, x2 = 0 | 0.0333 ± 0.0017 | 0.0418 ± 0.002
x1 = 8.741e-05, x2 = 1.802e-05 | 0.0399 ± 0.0021 | 0.0502 ± 0.0023
x1 = 8.742e-05, x2 = 3.604e-05 | 0.0464 ± 0.0023 | 0.058 ± 0.0027
x1 = 8.747e-05, x2 = 9.008e-05 | 0.0665 ± 0.0033 | 0.0801 ± 0.0039

From the CheMixHub ionic liquid set
